Consider three molecules from patent publication US10336746B1, “RAD51 inhibitors” (Cyteir Therapeutics, Inc., priority 2017, dated 2019).

A word on the half-life: it is how long it takes for the measured level to halve. A higher half-life goes with slow loss. The EC50 is the concentration needed to bring the measured effect to its halfway point. Read a high EC50 as a need for much substance.

Data set [1] is described as follows: Pharmacokinetic (PK) study, plasma by LC-MS. It counts as in vivo, Rat. The note with it: po @ 80 mg/kg (30% PEG400, 10% Vitamin E TPGS in water); for half-life: plasma. The method, then:
PK studies in mice were used to determine the fate of the compounds in a whole organism. Rats were treated with the compounds either orally of via IV at the indicated doses and followed for up to 24 hours. Plasma samples were taken at different time points and analyzed by LC-MS.

Data set [2] has as its system WI-38 cells (AID negative). Briefly: Primary screening cell killing assay repeated in WI-38 cells (AID negative). It counts as cell-based. As to conditions: Homo sapiens, 168 h, cell death on Day 7, Cell-Titer Glo. Summed up: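 Cell-killing counter-screen in AID-negative WI-38 cells, probing RAD51 inhibition via AID/RAD51 synthetic lethality. Viability luminescence (RLU) was media-subtracted, normalized to DMSO wells, and converted to percent kill (1 − normalized RLU) × 100; EC50 came from non-linear regression on a semi-log scale.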

The test system of a further data set is KYSE-510 (Head and Neck). Put plainly: Cell line screen, KYSE-510. It counts as cell-based. The note with it: Homo sapiens, AICDA Expression Negative. The method, then: (§1) The activity of the claimed compounds was measured in a variety of cell lines with different expression levels of activation induced cytidine deaminase (AICDA). The potency assay was repeated in all of the listed cell lines and the EC50 values recorded.

A further data set relates to WSU-FSCCL (Lymphoma). Put plainly: Cell line screen, WSU-FSCCL. As to conditions: AICDA Expression Negative. It counts as cell-based. As to the method:
as §1

Data set [3] in a line: Bi-directional Caco-2 permeability. It counts as in vitro ADME. As to conditions: human; for efflux ratio at 90 min: Caco-2, read-out: BA/AB Ratio; for Papp A→B at 90 min: Caco-2, apical to basolateral, read-out: AB Papp (cm/sec × 10^6); for Papp A→B at 90 min / Papp B→A at 90 min: 37 C, up to 90 minutes; for Papp B→A at 90 min: Caco-2, basolateral to apical, read-out: BA Papp (cm/sec × 10^6). As to the method:
(§2) Bi-directional Caco-2 permeability was assayed. Caco-2 cells were seeded onto permeable polycarbonate supports and allowed to differentiate for about 3 weeks prior to being used in the assays. The cells were then exposed to the compounds from either the apical or basolateral sides and incubated at 37 C for up to 90 minutes under light agitation. Compound transport was then measured using LC/MS/MS analysis at 30, 60, and 90 minutes.
For orientation: Passage across Caco-2 layers is used to estimate intestinal permeability.

The next data set relates to Daudi (Lymphoma). Put plainly: Cell line screen, Daudi. It counts as cell-based. The note with it: Homo sapiens, AICDA Expression High. The method, then:
as §1

The next data set has as its system U-698-M (Lymphoma). Briefly: Cell line screen, U-698-M. It counts as cell-based. As to conditions: AICDA Expression High. As to the method:
as §1

In the next data set the test system is KYSE-70 (Head and Neck). Briefly: Cell line screen, KYSE-70. It counts as cell-based. As to conditions: Homo sapiens, AICDA Expression Low. As to the method: as §1
Data set [4] has as its system Daudi cell line (AID positive). Briefly: Primary screening cell killing assay, Daudi cell line (AID positive). The note with it: Homo sapiens, 168 h, cell death on Day 7, Cell-Titer Glo. It counts as cell-based. Summed up:
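AID-positive Daudi cells, 1250 per well, were exposed to serially diluted compounds for 7 days at 37° C. Viability read by CellTiter-Glo luminescence; percent cell death and EC50 derived against untreated wells after media-blank subtraction.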

Data set [5] deals with WI-38 (Normal Human Lung Fibroblast). Briefly: Cell line screen, WI-38. As to conditions: AICDA Expression Negative. It counts as cell-based. The method, then: as §1
The test system of data set [6] is ARPE19/HPV16 (HPV Immortalized RPE). Put plainly: Cell line screen, ARPE19/HPV16. It counts as cell-based. The note with it: ARPE-19, AICDA Expression Negative. The method, then:
as §1

The subject of the next data set is TOV-1120D (Ovary). Put plainly: Cell line screen, TOV-1120D. It counts as cell-based. As to conditions: AICDA Expression Negative. The method, then: as §1
Data set [7] can be described thus: Human liver microsome stability. It counts as in vitro ADME. The note with it: human liver microsomes; for half-life / microsomal CLint: 37° C., 45 minutes; for microsomal CLint: read-out: Clearance (μg/min/mg). The method, then:
The stability of the claimed compounds was determined in the presences of human liver microsomes. The compounds were incubated with the microsomes at 37° C. for 45 minutes. Samples were analyzed using LC-MS/MS. Data analysis included half-life, clearance rate, and the percentage of hepatic blood flow (% QH) for each of the compounds in the different species.
(In general: Liver microsomes are a subcellular fraction often used to study metabolism.)

For the next data set, the system named is KG-1 (Leukemia). Briefly: Cell line screen, KG-1. It counts as cell-based. The note with it: AICDA Expression Negative. As to the method: as §1
A further data set concerns OV56 (Ovary). Briefly: Cell line screen, OV56. It counts as cell-based. As to conditions: AICDA Expression Low. As to the method:
as §1

The test system of the next data set is CCRF-SB (Leukemia). Briefly: Cell line screen, CCRF-SB. It counts as cell-based. The note with it: Homo sapiens, AICDA Expression High. The method, then:
as §1

Another data set relates to Caco-2 cells. Briefly: Bi-directional Caco-2 permeability. It counts as in vitro ADME. The note with it: Caco-2. The method, then:
as §2

Where [8] appears, read: Caco-2, Caco-2, AB direction, read-out: AB Recovery %.
[9] abbreviates: Caco-2, Caco-2, BA direction, read-out: BA Recovery %.

Read-outs that look alike come from different tables or passages of the source.

In the case of `CC(C)OC(=O)N[C@H]1CC[C@H](c2ncc(-c3ccc(NC(=O)NCc4ccccn4)cc3S(=O)(=O)NC(C)(C)C)s2)CC1` [Ex. 29, isopropyl ((1r,4r)-4-(5-(2-(N-(tert-butyl)sulfamoyl)-4-(3-(pyridin-2-ylmethyl)ureido)phenyl)thiazol-2-yl)cyclohexyl)carbamate], the “F (%) @ 5 mg/kg” value is recorded as 8.39% in [1] (Rat Female) and 3.69% in data set [1] (Rat Male). For the same molecule, the half-life in data set [1] (Rat Female) was 4.66 h; in [1] (Rat Male), 3.97 h; in [7] it was 0.342 h. Besides, the EC50 in data set [2] is over 1000 nM; in the data set with KYSE-510 (Head and Neck) it was over 10000 nM; in the data set with WSU-FSCCL (Lymphoma), 67 nM; in the data set on Daudi (Lymphoma), 43 nM; in the data set with U-698-M (Lymphoma), 113 nM; in the data set on KYSE-70 (Head and Neck) it was 4660 nM. Besides, the EC50 in data set [4] was at most 100 nM; in data set [5], over 10000 nM; in [6], over 10000 nM; with TOV-1120D (Ovary), 9170 nM; with KG-1 (Leukemia), over 10000 nM; in the data set on OV56 (Ovary), 9090 nM. The molecule further had an EC50 in the data set with CCRF-SB (Leukemia) of 1280 nM. Also, the results for the recovery at 90 min in data set [3] (setting [8]) and in [3] (setting [9]) were 93.9% and 90.9%, respectively. Further, in data set [3], the efflux ratio at 90 min is 2.2. Also, in [3], the Papp A→B at 90 min came out at 10.9 ×10⁻⁶ cm/s. Further, the Papp B→A at 90 min in data set [3] came to 24.1 ×10⁻⁶ cm/s. The “% QH (percentage of hepatic blood flow)” value in [7] is 78.8%. The microsomal CLint in data set [7] is 68 µL/min/mg.
For `CC(C)OC(=O)N[C@H]1CC[C@H](c2ncc(-c3ccc(NC(=O)NCc4ncccc4F)cc3S(=O)(=O)NC(C)(C)C)s2)CC1` [Ex. 31, isopropyl ((1r,4r)-4-(5-(2-(N-(tert-butyl)sulfamoyl)-4-(3-((3-fluoropyridin-2-yl)methyl)ureido)phenyl)thiazol-2-yl)cyclohexyl)carbamate], the “F (%) @ 5 mg/kg” value in data set [1] (Rat Female) was 2.77%; in [1] (Rat Male) it was 1.49%. The half-life in [1] (Rat Female) is 4.75 h; in data set [1] (Rat Male), 3.79 h; in [7] it was 0.373 h. Moreover, the EC50 in [2] is over 1000 nM; in the data set with KYSE-510 (Head and Neck), over 10000 nM; in the data set with WSU-FSCCL (Lymphoma), under 40 nM; in the data set with Daudi (Lymphoma), 20 nM; in the data set with U-698-M (Lymphoma), 31 nM; with KYSE-70 (Head and Neck) it was 4700 nM. The EC50 is at most 100 nM in data set [4]; over 10000 nM in data set [5]; over 10000 nM in data set [6]; 8780 nM in the data set with KG-1 (Leukemia); 2160 nM in the data set on CCRF-SB (Leukemia). For the same molecule, the figures for the recovery at 90 min in [3] (setting [8]) and in data set [3] (setting [9]) were 70.5% and 92.3%, respectively. Further, the efflux ratio at 90 min in data set [3] was found to be 1.1. The Papp A→B at 90 min in [3] came to 12.8 ×10⁻⁶ cm/s. In addition, the Papp B→A at 90 min in data set [3] is 13.6 ×10⁻⁶ cm/s. Besides, in data set [7], the “% QH (percentage of hepatic blood flow)” value is 77.3%. Further, in [7], the microsomal CLint came to 61.9 µL/min/mg.
Regarding `CC(C)OC(=O)Nc1ccc(-c2cnc([C@@H]3CC[C@@H](NC(=O)OC(C)C)CO3)s2)c(S(=O)(=O)NC(C)(C)C)c1` (relative stereo) [Ex. 60, trans-isopropyl N-[6-[5-[2-(tert-butylsulfamoyl)-4-(isopropoxycarbonylamino)phenyl]thiazol-2-yl]tetrahydropyran-3-yl]carbamate], the values for the EC50 in data set [2] and in data set [4] were over 1000 nM and 100 to 1000 nM, respectively. The “BA/AB Ratio” value with Caco-2 cells was found to be 0.9.
